Patent US4619925A, “3-Propenyl cephalosporin derivatives” (priority 1985, dated 1986)
Converted amounts (≈) assume the structure as drawn. Where two headings read alike, the source gives them in different places.

Experiments:
S. aureus Terajima = test: MIC, agar dilution technique (Mueller-Hinton Agar); type: cell-based; details: Staphylococcus aureus, Gp-Ia, penicillin sensitive, read-out: Minimum Inhibitory Concentration
From the text: (§1) Each of these groups of organisms is constituted of five individual strains of microorganism. The Gp-Ia organisms are Gram-positive staphylococci which are sensitive to penicillin. The Gp-Ib organisms are Gram-positive staphylococci which are resistant to penicillin and produce penicillinase. The Gn-Ia organisms are Gram-negative bacteria which are sensitive to ampicillin and cephalothin. The Gn-Ib organisms are Gram-negative bacteria which are resistant to ampicillin and cephalothin.

S. aureus A9601 = test: MIC, agar dilution technique (Mueller-Hinton Agar); type: cell-based; details: Staphylococcus aureus; S. aureus A9601; Gp-Ia, penicillin sensitive; read-out: Minimum Inhibitory Concentration
From the text: as §1

S. aureus A9534 = test: MIC, agar dilution technique (Mueller-Hinton Agar); type: cell-based; details: Staphylococcus aureus, Gp-Ia, penicillin sensitive, read-out: Minimum Inhibitory Concentration
From the text: as §1

K. pneumoniae D11 = test: MIC, agar dilution technique (Mueller-Hinton Agar); type: cell-based; details: Klebsiella pneumoniae; K. pneumoniae D11; Gn-Ia, ampicillin and cephalothin sensitive; read-out: Minimum Inhibitory Concentration
From the text: as §1

S. aureus A15092 = test: MIC, agar dilution technique (Mueller-Hinton Agar); type: cell-based; details: Staphylococcus aureus, Gp-Ib, penicillin resistant, read-out: Minimum Inhibitory Concentration
From the text: as §1

S. aureus A9602 = test: MIC, agar dilution technique (Mueller-Hinton Agar); type: cell-based; details: Staphylococcus aureus; S. aureus A9602; Gp-Ib, penicillin resistant; read-out: Minimum Inhibitory Concentration
From the text: as §1

E. coli A9660 = test: MIC, agar dilution technique (Mueller-Hinton Agar); type: cell-based; details: Escherichia coli; E. coli A9660; Gn-Ia, ampicillin and cephalothin sensitive; read-out: Minimum Inhibitory Concentration
From the text: as §1

K. pneumoniae A20345 = test: MIC, agar dilution technique (Mueller-Hinton Agar); type: cell-based; details: Klebsiella pneumoniae, Gn-Ib, ampicillin and cephalothin resistant, read-out: Minimum Inhibitory Concentration
From the text: as §1

P. mirabilis A9554 = test: MIC, agar dilution technique (Mueller-Hinton Agar); type: cell-based; details: Proteus mirabilis; P. mirabilis A9554; Gn-Ia, ampicillin and cephalothin sensitive; read-out: Minimum Inhibitory Concentration
From the text: as §1

S. aureus Russell = test: MIC, agar dilution technique (Mueller-Hinton Agar); type: cell-based; details: Staphylococcus aureus, read-out: Minimum Inhibitory Concentration
From the text: as §1

S. aureus BX-1633-2 = test: MIC, agar dilution technique (Mueller-Hinton Agar); type: cell-based; details: Staphylococcus aureus, BX16332, read-out: Minimum Inhibitory Concentration
From the text: as §1

S. aureus No. 193 = test: MIC, agar dilution technique (Mueller-Hinton Agar); type: cell-based; details: Staphylococcus aureus, Gp-Ib, penicillin resistant, read-out: Minimum Inhibitory Concentration
From the text: as §1

S. aureus Smith = test: MIC, agar dilution technique (Mueller-Hinton Agar); type: cell-based; details: Staphylococcus aureus, Gp-Ia, penicillin sensitive, read-out: Minimum Inhibitory Concentration
From the text: as §1

S. aureus A9497 = test: MIC, agar dilution technique (Mueller-Hinton Agar); type: cell-based; details: Staphylococcus aureus, Gp-Ia, penicillin sensitive, read-out: Minimum Inhibitory Concentration
From the text: as §1

K. pneumoniae A20346 = test: MIC, agar dilution technique (Mueller-Hinton Agar); type: cell-based; details: Klebsiella pneumoniae; K. pneumoniae A20346; Gn-Ib, ampicillin and cephalothin resistant; read-out: Minimum Inhibitory Concentration
From the text: as §1

E coli RGN-823 = test: MIC, agar dilution technique (Mueller-Hinton Agar); type: cell-based; details: Escherichia coli, RGN823, Gn-Ib, ampicillin and cephalothin resistant, read-out: Minimum Inhibitory Concentration
From the text: as §1

P. mirabilis A9900 = test: MIC, agar dilution technique (Mueller-Hinton Agar); type: cell-based; details: Proteus mirabilis; P. mirabilis A9900; Gn-Ia, ampicillin and cephalothin sensitive; read-out: Minimum Inhibitory Concentration
From the text: as §1

E. coli Juhl = test: MIC, agar dilution technique (Mueller-Hinton Agar); type: cell-based; details: Escherichia coli; E. coli Juhl; Gn-Ia, ampicillin and cephalothin sensitive; read-out: Minimum Inhibitory Concentration
From the text: as §1

E. coli A15148 = test: MIC, agar dilution technique (Mueller-Hinton Agar); type: cell-based; details: Escherichia coli; E. coli A15148; Gn-Ib, ampicillin and cephalothin resistant; read-out: Minimum Inhibitory Concentration
From the text: as §1

E. coli A20341-1 = test: MIC, agar dilution technique (Mueller-Hinton Agar); type: cell-based; details: Escherichia coli, A203411; E. coli A20341-1; Gn-Ib, ampicillin and cephalothin resistant; read-out: Minimum Inhibitory Concentration
From the text: as §1

Mouse urinary recovery = type: in vivo, mice; details: 20 mg/kg
H. influenzae A22157 = test: In vitro activity against fastidious bacteria; type: cell-based; details: Haemophilus influenzae, ampicillin-resistant (ABPC-R)
From the text: (§2) Table 5 contains comparative data for in vitro antibacterial activity against fastidious bacteria.

N. gonorrheae A20155 = test: In vitro activity against fastidious bacteria; type: cell-based; details: N. gonorrheae A20155; read-out: MIC
From the text: as §2

S. pyogenes Dick = test: In vitro activity against fastidious bacteria; type: cell-based; details: Streptococcus pyogenes; S. pyogenes Dick; read-out: MIC
From the text: as §2

Mouse blood levels = test: Mouse blood levels
From the text: Table 3 contains comparative blood level data for mice treated orally and intramuscularly with the hydroxyphenylglycyl derivatives.

[1] = system: Gn-Ia organisms (Gram-negative bacteria sensitive to ampicillin and cephalothin); test: In vitro activity, agar dilution, group of five strains; type: cell-based
From the text: as §1

`C/C=C\C1=C(C(=O)O)N2C(=O)C(NC(=O)[C@H](N)c3cccc(O)c3)[C@H]2SC1` (stereo partly drawn) [BMY-28272, 7-[(D)-2-amino-2-(3-hydroxyphenyl)acetamido]-3-[(Z)-1-propenyl]-3-cephem-4-carboxylic acid] showed an MIC (S. aureus Terajima) of 0.4 µg/mL (≈ 1.03 µM), an MIC (S. aureus A9601) of 0.8 µg/mL (≈ 2.05 µM) and an MIC (S. aureus A9534) of 0.4 µg/mL (≈ 1.03 µM). The MIC (K. pneumoniae D11) was 0.8 µg/mL (≈ 2.05 µM), the MIC (S. aureus A15092) was 1.6 µg/mL (≈ 4.11 µM) and the MIC (S. aureus A9602) was 0.8 µg/mL (≈ 2.05 µM). It also gave an MIC (E. coli A9660) of 0.8 µg/mL (≈ 2.05 µM), an MIC (K. pneumoniae A20345) of 6.3 µg/mL (≈ 16.2 µM) and an MIC (P. mirabilis A9554) of 0.8 µg/mL (≈ 2.05 µM). The MIC (S. aureus Russell) was 1.6 µg/mL (≈ 4.11 µM), the MIC (S. aureus BX-1633-2) was 1.6 µg/mL (≈ 4.11 µM) and the MIC (S. aureus No. 193) was 1.6 µg/mL (≈ 4.11 µM). The MIC (S. aureus Smith) was 0.4 µg/mL (≈ 1.03 µM), the MIC (S. aureus A9497) was 0.4 µg/mL (≈ 1.03 µM) and the MIC (K. pneumoniae A20346) was 50 µg/mL (≈ 128 µM). The MIC (E coli RGN-823) was 50 µg/mL (≈ 128 µM), the MIC (P. mirabilis A9900) was 0.8 µg/mL (≈ 2.05 µM) and the MIC (E. coli Juhl) was 1.6 µg/mL (≈ 4.11 µM). The MIC (E. coli A15148) was 25 µg/mL (≈ 64.2 µM), the MIC (E. coli A20341-1) was 12.5 µg/mL (≈ 32.1 µM) and the “total recovery ratio relative to BMY-28100 and cefaclor” value (Mouse urinary recovery; p.o.) was “smaller than those of BMY-28100 and cefaclor”. The “rate of excretion relative to BMY-28100 and cefaclor” value (Mouse urinary recovery; p.o., from the 6-24 hours period) was “slower than BMY-28100 and cefaclor”, the dose excreted at 2 h (Mouse urinary recovery; mouse, urine, po, 0-2 hr) was 37% and the dose excreted at 4 h (Mouse urinary recovery; mouse, urine, po, 2-4 hr) was 4.4%. For the same compound, the dose excreted at 6 h (Mouse urinary recovery; mouse, urine, po, 4-6 hr) was 0.4%, the dose excreted at 24 h (Mouse urinary recovery; mouse, urine, po, p.o., 6-24 hr, read-out: Mouse urinary recovery 6-24 hr) was 8.7% and the dose excreted at 24 h (Mouse urinary recovery; mouse, urine, po, p.o., total, read-out: Mouse urinary recovery Total) was 51%. It also gave an MIC (H. influenzae A22157) of 0.4 µg/mL (≈ 1.03 µM), an MIC (N. gonorrheae A20155) of 0.4 µg/mL (≈ 1.03 µM) and an MIC (S. pyogenes Dick) of 0.05 µg/mL (≈ 0.128 µM). The “AUC relative to BMY-28100” value (Mouse blood levels; 20 mg/kg intramuscularly) was “greater AUC value”, the “T1/2 relative to BMY-28100” value (Mouse blood levels; 20 mg/kg intramuscularly) was “longer T1/2 than BMY-28100” and the “AUC relative to BMY-28100” value (Mouse blood levels; 100 mg/kg orally) was “greater AUC value”. The “T1/2 relative to BMY-28100” value (Mouse blood levels; 100 mg/kg orally) was “somewhat shorter T1/2 than BMY-28100”, the “duration of blood levels relative to BMY-28100” value (Mouse blood levels; 100 mg/kg orally) was “longer duration of blood levels” and the “antibiotic concentrations in the bloodstream” value (Mouse blood levels; following oral administration, summary statement) was “prolonged antibiotic concentrations in the bloodstream following oral administration”. It also gave a concentration at 10 min (Mouse blood levels; mouse, blood, im, 20 mg/kg) of 20000 ng/mL, a concentration at 20 min (Mouse blood levels; mouse, blood, im, 20 mg/kg) of 17000 ng/mL and a concentration at 0.5 h (Mouse blood levels; mouse, blood, im, 20 mg/kg) of 17000 ng/mL. It also gave a concentration at 40 min (Mouse blood levels; mouse, blood, im, 20 mg/kg) of 12000 ng/mL, a concentration at 50 min (Mouse blood levels; mouse, blood, im, 20 mg/kg) of 11000 ng/mL and a concentration at 1 h (Mouse blood levels; mouse, blood, im, 20 mg/kg) of 9400 ng/mL. For the same compound, the concentration at 1.5 h (Mouse blood levels; mouse, blood, im, 20 mg/kg) was 4800 ng/mL, the concentration at 2 h (Mouse blood levels; mouse, blood, im, 20 mg/kg) was 2600 ng/mL and the AUC (Mouse blood levels; mouse, blood, im, 20 mg/kg, 20 mg/kg i.m.) was 20000 ng·h/mL. For the same compound, the half-life (Mouse blood levels; mouse, blood, im, 20 mg/kg, T 1/2, 20 mg/kg i.m.) was 36 min, the Cmax (Mouse blood levels; mouse, blood, po, 20 mg/kg) was 9600 ng/mL and the concentration at 0.5 h (Mouse blood levels; mouse, blood, po, 20 mg/kg) was 7700 ng/mL. It also gave a concentration at 1 h (Mouse blood levels; mouse, blood, po, 20 mg/kg) of 4200 ng/mL, a concentration at 2 h (Mouse blood levels; mouse, blood, po, 20 mg/kg) of 1600 ng/mL and a concentration at 3 h (Mouse blood levels; mouse, blood, po, 20 mg/kg) of 620 ng/mL. It also gave a concentration at 4 h (Mouse blood levels; mouse, blood, po, 20 mg/kg) of 220 ng/mL, a concentration at 5 h (Mouse blood levels; mouse, blood, po, 20 mg/kg) of 130 ng/mL and a concentration at 6 h (Mouse blood levels; mouse, blood, po, 20 mg/kg) of 82 ng/mL. The AUC (Mouse blood levels; mouse, blood, po, 20 mg/kg, 20 mg/kg p.o.) was 9700 ng·h/mL, the AUC (Mouse blood levels; mouse, blood, po, 20 mg/kg, 20 mg/kg p.o., another experiment (footnote)) was 17000 ng·h/mL and the half-life (Mouse blood levels; mouse, blood, po, 20 mg/kg, T 1/2, 20 mg/kg p.o.) was 51.6 min. The half-life (Mouse blood levels; mouse, blood, po, 20 mg/kg, T 1/2, 20 mg/kg p.o., another experiment (footnote)) was 60 min, the concentration at 0.5 h (Mouse blood levels; mouse, blood, po, 100 mg/kg) was 23000 ng/mL and the concentration at 1 h (Mouse blood levels; mouse, blood, po, 100 mg/kg) was 22000 ng/mL. It also gave a concentration at 2 h (Mouse blood levels; mouse, blood, po, 100 mg/kg) of 16000 ng/mL, a concentration at 3 h (Mouse blood levels; mouse, blood, po, 100 mg/kg) of 10000 ng/mL and a concentration at 4 h (Mouse blood levels; mouse, blood, po, 100 mg/kg) of 6300 ng/mL. It also gave a concentration at 5 h (Mouse blood levels; mouse, blood, po, 100 mg/kg) of 3100 ng/mL, a concentration at 6 h (Mouse blood levels; mouse, blood, po, 100 mg/kg) of 2800 ng/mL and a concentration at 7 h (Mouse blood levels; mouse, blood, po, 100 mg/kg) of 2500 ng/mL. For the same compound, the AUC (Mouse blood levels; mouse, blood, po, 100 mg/kg, 100 mg/kg p.o.) was 71000 ng·h/mL, the half-life (Mouse blood levels; mouse, blood, po, 100 mg/kg, T 1/2, 100 mg/kg p.o.) was 102 min and the “activity relative to cephalexin and cefaclor” value [1] was “more active than cephalexin and slightly better than cefaclor”.
